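These data come from cells grown in 96-well plates and exposed to compound for 48 hours at five concentrations. The concentration for full growth arrest is given as TGI.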
Tests used:
Test in all cases: growth of human tumour cells (NCI), 48 h
KM12 colon = test system: KM12 colon
SK-OV-3 ovarian = test system: SK-OV-3 ovarian
SNB-75 CNS = test system: SNB-75 CNS
RPMI-8226 leukemia = test system: RPMI-8226 leukemia
TK-10 renal = test system: TK-10 renal
MDA-MB-231 breast = test system: MDA-MB-231 breast
CCRF-CEM leukemia = test system: CCRF-CEM leukemia
LOX IMVI melanoma = test system: LOX IMVI melanoma
SNB-19 CNS = test system: SNB-19 CNS
NCI-H522 lung = test system: NCI-H522 lung
MDA-MB-435 = test system: MDA-MB-435
NCI-H460 lung = test system: NCI-H460 lung
T-47D breast = test system: T-47D breast
SF-295 CNS = test system: SF-295 CNS
UACC-62 melanoma = test system: UACC-62 melanoma
OVCAR-8 ovarian = test system: OVCAR-8 ovarian
HCT-116 colon = test system: HCT-116 colon
SK-MEL-2 melanoma = test system: SK-MEL-2 melanoma
OVCAR-4 ovarian = test system: OVCAR-4 ovarian
A549 NSCLC = test system: A549 NSCLC
DU-145 prostate = test system: DU-145 prostate
OVCAR-3 ovarian = test system: OVCAR-3 ovarian
786-0 renal = test system: 786-0 renal
IGROV1 ovarian = test system: IGROV1 ovarian
SR leukemia = test system: SR leukemia
K-562 leukemia = test system: K-562 leukemia
UACC-257 melanoma = test system: UACC-257 melanoma
UO-31 renal = test system: UO-31 renal
HOP-92 NSCLC = test system: HOP-92 NSCLC
SK-MEL-28 melanoma = test system: SK-MEL-28 melanoma
A498 renal = test system: A498 renal
NCI-H23 lung = test system: NCI-H23 lung
MCF7 breast = test system: MCF7 breast
NCI-H226 lung = test system: NCI-H226 lung
HOP-62 NSCLC = test system: HOP-62 NSCLC
SN12C renal = test system: SN12C renal
M14 melanoma = test system: M14 melanoma
SK-MEL-5 melanoma = test system: SK-MEL-5 melanoma
SW-620 colon = test system: SW-620 colon
ACHN renal = test system: ACHN renal
HCT-15 colon = test system: HCT-15 colon
MDA-N = test system: MDA-N
U251 CNS = test system: U251 CNS
PC-3 prostate = test system: PC-3 prostate
COLO 205 colon = test system: COLO 205 colon
OVCAR-5 ovarian = test system: OVCAR-5 ovarian
HCC-2998 colon = test system: HCC-2998 colon
HL-60(TB) leukemia = test system: HL-60(TB) leukemia
NCI/ADR-RES ovarian = test system: NCI/ADR-RES ovarian
MOLT-4 leukemia = test system: MOLT-4 leukemia
CAKI-1 renal = test system: CAKI-1 renal
EKVX NSCLC = test system: EKVX NSCLC
SF-268 CNS = test system: SF-268 CNS
HT29 colon = test system: HT29 colon
SF-539 CNS = test system: SF-539 CNS
RXF 393 renal = test system: RXF 393 renal
MALME-3M melanoma = test system: MALME-3M melanoma

C[C@@H](NC(=O)OC1C=CC2(CC1)C(=O)N(C)c1ccccc12)c1cccc2ccccc12 (stereo partly specified)
TGI (KM12 colon): > 25 µM
TGI (SK-OV-3 ovarian): > 25 µM
TGI (SNB-75 CNS): > 25 µM
TGI (RPMI-8226 leukemia): > 25 µM
TGI (TK-10 renal): > 25 µM
TGI (MDA-MB-231 breast): > 25 µM
TGI (CCRF-CEM leukemia): > 25 µM
TGI (LOX IMVI melanoma): > 25 µM
TGI (SNB-19 CNS): > 25 µM
TGI (NCI-H522 lung): > 25 µM
TGI (MDA-MB-435): > 25 µM
TGI (NCI-H460 lung): > 25 µM
TGI (T-47D breast): > 25 µM
TGI (SF-295 CNS): > 25 µM
TGI (UACC-62 melanoma): > 25 µM
TGI (OVCAR-8 ovarian): > 25 µM
TGI (HCT-116 colon): > 25 µM
TGI (SK-MEL-2 melanoma): > 25 µM
TGI (OVCAR-4 ovarian): > 25 µM
TGI (A549 NSCLC): > 25 µM
TGI (DU-145 prostate): > 25 µM
TGI (OVCAR-3 ovarian): > 25 µM
TGI (786-0 renal): > 25 µM
TGI (IGROV1 ovarian): > 25 µM
TGI (SR leukemia): > 25 µM
TGI (K-562 leukemia): > 25 µM
TGI (UACC-257 melanoma): > 25 µM
TGI (UO-31 renal): > 25 µM
TGI (HOP-92 NSCLC): > 25 µM
TGI (SK-MEL-28 melanoma): > 25 µM
TGI (A498 renal): > 25 µM
TGI (NCI-H23 lung): > 25 µM
TGI (MCF7 breast): > 25 µM
TGI (NCI-H226 lung): > 25 µM
TGI (HOP-62 NSCLC): > 25 µM
TGI (SN12C renal): > 25 µM
TGI (M14 melanoma): > 25 µM
TGI (SK-MEL-5 melanoma): > 25 µM
TGI (SW-620 colon): > 25 µM
TGI (ACHN renal): > 25 µM
TGI (HCT-15 colon): > 25 µM
TGI (MDA-N): > 25 µM
TGI (U251 CNS): > 25 µM
TGI (PC-3 prostate): > 25 µM
TGI (COLO 205 colon): > 25 µM
TGI (OVCAR-5 ovarian): > 25 µM
TGI (HCC-2998 colon): > 25 µM
TGI (HL-60(TB) leukemia): 14.7 µM
TGI (NCI/ADR-RES ovarian): > 25 µM
TGI (MOLT-4 leukemia): > 25 µM
TGI (CAKI-1 renal): > 25 µM
TGI (EKVX NSCLC): > 25 µM
TGI (SF-268 CNS): > 25 µM
TGI (HT29 colon): > 25 µM

COC(=O)C1C2C=CC(C2)N1S(=O)(=O)c1ccccc1 (stereo unspecified)
TGI (KM12 colon): > 100 µM
TGI (SK-OV-3 ovarian): > 100 µM
TGI (RPMI-8226 leukemia): > 100 µM
TGI (TK-10 renal): > 100 µM
TGI (MDA-MB-231 breast): > 100 µM
TGI (SNB-19 CNS): > 100 µM
TGI (NCI-H522 lung): > 100 µM
TGI (MDA-MB-435): > 100 µM
TGI (NCI-H460 lung): > 100 µM
TGI (T-47D breast): > 100 µM
TGI (SF-295 CNS): > 100 µM
TGI (UACC-62 melanoma): > 100 µM
TGI (OVCAR-8 ovarian): > 100 µM
TGI (HCT-116 colon): > 100 µM
TGI (SK-MEL-2 melanoma): > 100 µM
TGI (OVCAR-4 ovarian): > 100 µM
TGI (A549 NSCLC): > 100 µM
TGI (DU-145 prostate): > 100 µM
TGI (OVCAR-3 ovarian): > 100 µM
TGI (786-0 renal): > 100 µM
TGI (K-562 leukemia): > 100 µM
TGI (UO-31 renal): > 100 µM
TGI (HOP-92 NSCLC): > 100 µM
TGI (SK-MEL-28 melanoma): > 100 µM
TGI (A498 renal): > 100 µM
TGI (NCI-H23 lung): > 100 µM
TGI (MCF7 breast): > 100 µM
TGI (HOP-62 NSCLC): > 100 µM
TGI (SN12C renal): > 100 µM
TGI (M14 melanoma): > 100 µM
TGI (SF-539 CNS): > 100 µM
TGI (SK-MEL-5 melanoma): > 100 µM
TGI (RXF 393 renal): > 100 µM
TGI (SW-620 colon): > 100 µM
TGI (ACHN renal): > 100 µM
TGI (HCT-15 colon): > 100 µM
TGI (MDA-N): > 100 µM
TGI (U251 CNS): > 100 µM
TGI (PC-3 prostate): > 100 µM
TGI (COLO 205 colon): > 100 µM
TGI (OVCAR-5 ovarian): > 100 µM
TGI (NCI/ADR-RES ovarian): > 100 µM
TGI (MOLT-4 leukemia): > 100 µM
TGI (CAKI-1 renal): > 100 µM
TGI (SF-268 CNS): > 100 µM
TGI (HT29 colon): > 100 µM
TGI (MALME-3M melanoma): > 100 µM
